# According to article PMC6576746, “Rational discovery of dual-indication multi-target PDE/Kinase inhibitor for precision anti-cancer therapy using structural systems pharmacology” (PLoS Computational Biology, 2019):
# Key:
# Assay in all cases: cells
# Design in all cases: species or system panel of human cancer cell lines; Eurofins OncoPanel proliferation; nuclei count by high-content fluorescence imaging, 10-point dose response
# SJSA1 = conditions: Homo sapiens, SJSA-1, 72 h, cell count, 3 days
# Outline: (§1)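 Cells in RPMI 1640/10% FBS or special medium received compound the day after seeding, with a time-zero plate; 3-day incubation at 37°C, 5% CO2. Nuclei imaged by fluorescence microscopy; 10 half-log doses from 100 μM, 0.1% DMSO. EC50, IC50, GI50 and activity area (0–10) from curve fits.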
# Hs 934.T = conditions: 72 h, cell count, 3 days
# Outline: as §1
# C32TG = conditions: C32TG, 72 h, cell count, 3 days
# Outline: as §1
# HT-29 = conditions: Homo sapiens, HT-29, 72 h, cell count, 3 days
# Outline: as §1
# SKO-007 = conditions: SKO-007, 72 h, cell count, 3 days
# Outline: as §1
# MC116 = conditions: Homo sapiens, MC116, 72 h, cell count, 3 days
# Outline: as §1
# RL95-2 = conditions: Homo sapiens, RL95-2, 72 h, cell count, 3 days
# Outline: as §1
# H4 = conditions: 72 h, cell count, 3 days
# Outline: as §1
# DK-MG = conditions: 72 h, cell count, 3 days
# Outline: as §1
# TCCSUP = conditions: Homo sapiens, TCC-SUP, 72 h, cell count, 3 days
# Outline: as §1
# HT-3 = conditions: Homo sapiens, HT-3, 72 h, cell count, 3 days
# Outline: as §1
# A204 = conditions: Homo sapiens, A204, 72 h, cell count, 3 days
# Outline: as §1
# Colo 201 = conditions: Homo sapiens, COLO 201, 72 h, cell count, 3 days
# Outline: as §1
# DB = conditions: Homo sapiens, DB, 72 h, cell count, 3 days
# Outline: as §1
# [1] = 50% of maximum possible response
smiles,measurement,setting,value
C[C@@H]1CC(=O)NN=C1c1ccc(NN=C(C#N)C#N)cc1 [levosimendan],IC50,SJSA1; [1],41.9 µM
same,GI50,SJSA1; corrected for time zero,18.4 µM
same,EC50,SJSA1; curve inflection point,41.9 µM
same,IC50,Hs 934.T; [1],> 100 µM
same,GI50,Hs 934.T; corrected for time zero,> 100 µM
same,EC50,Hs 934.T; curve inflection point,> 100 µM
same,IC50,C32TG; [1],36.9 µM
same,GI50,C32TG; corrected for time zero,23.4 µM
same,EC50,C32TG; curve inflection point,36.9 µM
same,IC50,HT-29; [1],> 100 µM
same,GI50,HT-29; corrected for time zero,82.7 µM
same,EC50,HT-29; curve inflection point,> 100 µM
same,IC50,SKO-007; [1],42 µM
same,GI50,SKO-007; corrected for time zero,22.3 µM
same,EC50,SKO-007; curve inflection point,42 µM
same,IC50,MC116; [1],14.9 µM
same,GI50,MC116; corrected for time zero,13.8 µM
same,EC50,MC116; curve inflection point,14.7 µM
same,IC50,RL95-2; [1],21.1 µM
same,GI50,RL95-2; corrected for time zero,10.4 µM
same,EC50,RL95-2; curve inflection point,19 µM
same,IC50,H4; [1],> 100 µM
same,GI50,H4; corrected for time zero,> 100 µM
same,EC50,H4; curve inflection point,> 100 µM
same,IC50,DK-MG; [1],> 100 µM
same,GI50,DK-MG; corrected for time zero,49.4 µM
same,EC50,DK-MG; curve inflection point,> 100 µM
same,IC50,TCCSUP; [1],> 100 µM
same,GI50,TCCSUP; corrected for time zero,94.3 µM
same,EC50,TCCSUP; curve inflection point,> 100 µM
same,IC50,HT-3; [1],91.3 µM
same,GI50,HT-3; corrected for time zero,48.5 µM
same,EC50,HT-3; curve inflection point,91.3 µM
same,IC50,A204; [1],9.19 µM
same,GI50,A204; corrected for time zero,7.57 µM
same,EC50,A204; curve inflection point,7.85 µM
same,IC50,Colo 201; [1],68.3 µM
same,GI50,Colo 201; corrected for time zero,53.8 µM
same,EC50,Colo 201; curve inflection point,68.3 µM
same,IC50,DB; [1],17.6 µM
same,GI50,DB; corrected for time zero,14.5 µM
same,EC50,DB; curve inflection point,17.6 µM
